Laboratory results: patent US6287794A, “Factor Vlla inhibitors” (Aventis Pharma Deutschland GmbH, priority 1998, dated 2001)
pKi: −log10 of the molar value. Non-standard residues stand in square brackets, D forms with d. Residues, ends and D or L forms follow the SMILES beside them. *: point of attachment. Phe(4-NO2) = N[C@@H](Cc1ccc([N+](=O)[O-])cc1)C(=O)O; Phe(4-amidino) = N=C(N)c1ccc(C[C@H](N)C(=O)O)cc1; Arg(NO2) = N=C(NCCC[C@H](N)C(=O)O)N[N+](=O)[O-]; Cha = N[C@@H](CC1CCCCC1)C(=O)O; Agb = N=C(N)NCC[C@H](N)C(=O)O; Dab = NCC[C@H](N)C(=O)O; Alloc = C=CCOC(=O)*; Bn = c1ccc(C*)cc1

target: T1, human factor VIIa and TF (Homo sapiens, UniProt P08709); test: Determination of Ki for FVIIa inhibition (chromogenic assay, substrate S-2288); type: biochemical; settings: human factor VIIa 5 nM and TF 10 nM, S-2288 500 μM, 25° C., 15 minute preincubation, pH 8.15; read-out: Factor VIIa inhibitory activities Ki
T1 construct: human factor VIIa and TF
Method: The inhibitory activity (Ki) of each compound towards […] activity was determined using a chromogenic assay essentially as described previously. J. A. Ostrem, F. Al-Obeidi, P. Safar, A. Safarova, S. K. Stringer, M. Patek, M. T. Cross, J. Spoonamore, J. C. LoCascio, P. Kasireddy, D. S. Thorpe, N. Sepetov, M. Lebi, P. Wildgoose, P. Strop, "Discovery of a novel, potent, and specific family of factor Xa inhibitors via combinatorial chemistry". Biochemistry 37 (1998) 1053-1059. Kinetic assays were conducted at 25° C. in half-area microtiter plates (Costar Corp., Cambridge, Mass.) using a kinetic plate reader (Molecular Devices Spectramax 250). A typical assay consisted of 25 μl of human factor VIIa and TF (5 nM and 10 nM, respective final concentration) combined with 40 μl of inhibitor dilutions in 10% DMSO/TBS-PEG buffer (50 mM Tris, 15 mM NaCl, 5 mM CaCl2; 0.05% PEG 8k, pH 8.15). Following a 15 minute preincubation period, the assay was initiated by the addition of 35 μl of the chromogenic substrate S-2288 (D-Ile-Pro-Arg-pNA, Pharmacia Hepar Inc, 500 μM final concentration.). The apparent inhibition constants were calculated from the slope of the progress curves during the linear part of the time course, typically between 1 and 5 min following addition of substrate to the assay. The true Ki was subsequently determined for each compound by correcting for substrate concentration (S) and the Km using the formula Ki=Ki app/(1+(S)/Km). I. H. Segal, Enzyme Kinetics, pp 100-125 (John Wiley & Sons, N.Y., 1975).

T1 sequence (P08709 213-466 limits assumed): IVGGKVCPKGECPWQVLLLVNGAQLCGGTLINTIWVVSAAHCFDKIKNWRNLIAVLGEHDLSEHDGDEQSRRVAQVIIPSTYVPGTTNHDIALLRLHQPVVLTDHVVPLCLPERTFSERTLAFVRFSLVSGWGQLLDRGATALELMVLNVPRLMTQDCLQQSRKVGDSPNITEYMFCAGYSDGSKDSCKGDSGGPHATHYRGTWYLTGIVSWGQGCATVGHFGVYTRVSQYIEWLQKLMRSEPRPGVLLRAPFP
T1 sequence (P08709 61-212 limits assumed): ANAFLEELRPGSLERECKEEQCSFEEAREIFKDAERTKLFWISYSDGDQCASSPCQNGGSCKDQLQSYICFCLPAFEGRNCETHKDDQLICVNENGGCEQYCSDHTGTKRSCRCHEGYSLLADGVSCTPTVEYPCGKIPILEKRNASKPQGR
T1 sequence (P13726 33-295 partner): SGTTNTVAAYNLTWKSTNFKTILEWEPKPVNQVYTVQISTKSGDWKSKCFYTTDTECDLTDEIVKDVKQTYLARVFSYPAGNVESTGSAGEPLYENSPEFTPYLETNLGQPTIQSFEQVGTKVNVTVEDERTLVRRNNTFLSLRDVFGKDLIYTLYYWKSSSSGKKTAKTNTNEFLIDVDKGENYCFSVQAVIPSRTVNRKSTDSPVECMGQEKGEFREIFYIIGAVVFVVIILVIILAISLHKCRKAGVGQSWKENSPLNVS

First: C=CCOC(=O)N[C@@H](Cc1ccc(C(=N)N)cc1)C(=O)N[C@@H](CCC(=O)O)C(=O)N[C@@H](CC(N)=O)C(=O)NCc1ccc(OC)cc1 [Alloc--pAph--Glu--Asn-4-methoxybenzylamide]
Second: C=CCOC(=O)N[C@@H](Cc1ccc(C(=N)N)cc1)C(=O)N[C@@H](CCC(=O)O)C(=O)N[C@@H](CC(N)=O)C(=O)NCc1cccc2ccccc12 [Alloc--pAph--Glu--Asn-1-naphthylmethylamide]
The pKi of the first is 0.43 log units lower: 7.08 for the first, 7.51 for the second. The second binds more tightly here.

Going from `C=CCOC(=O)N[C@@H](Cc1ccc(C(=N)N)cc1)C(=O)N[C@@H](CCC(=O)O)C(=O)N[C@@H](CC(N)=O)C(=O)NCC1CCCO1` (stereo partly drawn) [Alloc--pAph--Glu--Asn-2-tetrahydrofuranylmethylamide] to `C=CCOC(=O)N[C@@H](Cc1ccc(C(=N)N)cc1)C(=O)N[C@@H](CCC(=O)O)C(=O)N[C@@H](CCC(N)=O)C(N)=O` [Alloc--pAph--Glu--Gln--NH2], the pKi falls from 6.77 to 5.82 (0.95 log units).

`C=CCOC(=O)N[C@@H](Cc1ccc(C(=N)N)cc1)C(=O)N[C@@H](CCC(=O)O)C(=O)N[C@@H](CC(N)=O)C(=O)N[C@@H](CC1CCCCC1)C(N)=O` [Alloc--pAph--Glu--Asn--Cha--NH2, Alloc-pAph-Glu-Asn-Cha-NH2] (Alloc-[Phe(4-amidino)]EN[Cha]-NH2) and `C=CCOC(=O)N[C@@H](Cc1ccc(C(=N)N)cc1)C(=O)N[C@@H](CCC(=O)O)C(=O)N[C@@H](CC(=N)N)C(=O)N[C@@H](CC1CCCCC1)C(N)=O` [Alloc-pAph-Glu-Ala[3-C(=NH)--NH2 ]-Cha-NH2] are within 0.2 log units of each other in pKi: 7.68 for the first, 7.52 for the second.

`C=CCOC(=O)N[C@@H](Cc1ccc(C(=N)N)cc1)C(=O)N[C@@H](CCC(=O)O)C(=O)N[C@@H](CSCc1ccccc1)C(=O)N[C@@H](CC1CCCCC1)C(N)=O` [Alloc--pAph--Glu--Cys(Bzl)--Cha--NH2] (Alloc-[Phe(4-amidino)]EC(Bn)[Cha]-NH2) and `C=CCOC(=O)N[C@@H](Cc1ccc(C(=N)N)cc1)C(=O)N[C@@H](CCC(=O)O)C(=O)N[C@H](C(=O)N[C@@H](CC1CCCCC1)C(N)=O)[C@@H](C)OCc1ccccc1` [Alloc--pAph--Glu--Thr(Bzl)--Cha--NH2] (Alloc-[Phe(4-amidino)]ET(Bn)[Cha]-NH2) are within 0.2 log units of each other in pKi: 7.59 for the first, 7.72 for the second.

Compared with `C=CCOC(=O)N[C@@H](Cc1ccc(C(=N)N)cc1)C(=O)N[C@@H](CCC(=O)O)C(=O)N[C@H](CCCNC(=N)N)C(=O)N[C@@H](CC1CCCCC1)C(N)=O` [Alloc--pAph--Glu--D--Arg--Cha--NH2] (Alloc-[Phe(4-amidino)]E[dR][Cha]-NH2), `C=CCOC(=O)N[C@@H](Cc1ccc(C(=N)N)cc1)C(=O)N[C@@H](CCC(=O)O)C(=O)N[C@@H](CCNC(=N)N)C(=O)N[C@@H](CC1CCCCC1)C(N)=O` [Alloc--pAph--Glu--Dab[--C(=NH)--NH2]--Cha--NH2] (Alloc-[Phe(4-amidino)]E[Agb][Cha]-NH2) is 3.00 log units higher in pKi: 4.92 for the first, 7.92 for the second.

First: C=CCOC(=O)N[C@@H](Cc1ccc(C(=N)N)cc1)C(=O)N[C@@H](CCC(=O)O)C(=O)N[C@@H](CNC(C)=N)C(=O)N[C@@H](CC1CCCCC1)C(N)=O [Alloc-pAph-Glu-Dap[--C(=NH)--CH3 ]-Cha-NH2]
Second: C=CCOC(=O)N[C@@H](Cc1ccc(C(=N)N)cc1)C(=O)N[C@@H](CCC(=O)O)C(=O)N[C@@H](CSC)C(=O)N[C@@H](CC1CCCCC1)C(N)=O [Alloc--pAph--Glu--Cys(Me)--Cha--NH2] (Alloc-[Phe(4-amidino)]EC(Me)[Cha]-NH2)
The pKi of the first is 0.26 log units higher: 6.96 for the first, 6.70 for the second. The first binds more tightly here.

First: C=CCOC(=O)N[C@@H](Cc1ccc(C(=N)N)cc1)C(=O)N[C@@H](CCC(=O)O)C(=O)N[C@@H](CCN)C(=O)NCCc1ccccc1 [Alloc--pAph--Glu--Dab--NH--(CH2)2 --Ph, Alloc-pAph-Glu-Dab-NH--CH2 --CH2 --Ph]
Second: C=CCOC(=O)N[C@@H](Cc1ccc(C(=N)N)cc1)C(=O)N[C@@H](CCC(=O)O)C(=O)N[C@@H](CC(N)=O)C(=O)NCCCc1ccccc1 [Alloc--pAph--Glu--Asn-3-phenylpropylamide]
The pKi of the first is 1.17 log units lower: 6.42 for the first, 7.59 for the second. The second binds more tightly here.

`C=CCOC(=O)N[C@@H](Cc1ccc(C(=N)N)cc1)C(=O)N[C@@H](CCC(=O)O)C(=O)N[C@@H](CCSC)C(=O)N[C@@H](CC1CCCCC1)C(N)=O` [Alloc--pAph--Glu--Met--Cha--NH2] (Alloc-[Phe(4-amidino)]EM[Cha]-NH2) and `C=CCOC(=O)NCC[C@H](NC(=O)[C@H](CCC(=O)O)NC(=O)[C@H](Cc1ccc(C(=N)N)cc1)NC(=O)OCC=C)C(=O)N[C@@H](CC1CCCCC1)C(N)=O` [Alloc--pAph--Glu--Dab(Alloc)--Cha--NH2] (Alloc-[Phe(4-amidino)]E[Dab](Alloc)[Cha]-NH2) are within 0.2 log units of each other in pKi: 6.96 for the first, 6.82 for the second.

`C=CCOC(=O)N[C@@H](Cc1ccc(C(=N)N)cc1)C(=O)N[C@@H](CCC(=O)O)C(=O)N[C@@H](CC(N)=O)C(=O)NC1c2ccccc2-c2ccccc21` [Alloc--pAph--Glu--Asn-9-fluorenylamide] and `C=CCOC(=O)N[C@@H](Cc1ccc(C(=N)N)cc1)C(=O)N[C@@H](CCC(=O)O)C(=O)N[C@@H](CC(N)=O)C(=O)NC(C)c1cccc2ccccc12` (stereo partly drawn) [Alloc--pAph--Glu--Asn-1-(1-naphthyl)ethylamide] are within 0.2 log units of each other in pKi: 7.64 for the first, 7.68 for the second.

Compared with `C=CCOC(=O)N[C@@H](Cc1ccc(C(=N)N)cc1)C(=O)N[C@@H](CCC(=O)O)C(=O)N[C@H](C(=O)NCCC(c1ccccc1)c1ccccc1)[C@@H](C)OCc1ccccc1` [Alloc-pAph-Glu-Thr(Bzl)-NH--CH2 --CH2 --CH(Ph)2], `C=CCOC(=O)N[C@@H](Cc1ccc(C(=N)N)cc1)C(=O)N[C@@H](CCC(=O)O)C(=O)N[C@@H](CC(N)=O)C(=O)NCCC(c1ccccc1)c1ccccc1` [Alloc--pAph--Glu--Asn-3,3-diphenylpropylamide] is 0.85 log units higher in pKi: 6.77 for the first, 7.62 for the second. The second binds more tightly here.

Going from `C=CCOC(=O)N[C@@H](Cc1ccc(C(=N)N)cc1)C(=O)N[C@@H](CCC(=O)O)C(=O)N[C@@H](CC(N)=O)C(=O)NCCc1ccc2ccccc2c1` [Alloc--pAph--Glu--Asn-2-(2-naphthyl)ethylamide] to `C=CCOC(=O)N[C@@H](Cc1ccc(C(=N)N)cc1)C(=O)N[C@@H](CCC(=O)O)C(=O)N[C@@H](CC(N)=O)C(=O)NCCc1ccc(S(N)(=O)=O)cc1` [Alloc--pAph--Glu--Asn-2-(4-sulfamoylphenyl)ethylamide], the pKi falls from 7.28 to 6.46 (0.82 log units).

First: C=CCOC(=O)N[C@@H](Cc1ccc(C(=N)N)cc1)C(=O)N[C@@H](CCC(=O)O)C(=O)N[C@@H](Cc1ccc([N+](=O)[O-])cc1)C(=O)N[C@@H](CC1CCCCC1)C(N)=O [Alloc--pAph--Glu--Phe(4-NO2)--Cha--NH2] (Alloc-[Phe(4-amidino)]E[Phe(4-NO2)][Cha]-NH2)
Second: C=CCOC(=O)N[C@@H](Cc1ccc(C(=N)N)cc1)C(=O)N[C@@H](CCC(=O)O)C(=O)N[C@@H](CCCNC(=N)N[N+](=O)[O-])C(=O)N[C@@H](CC1CCCCC1)C(N)=O [Alloc--pAph--Glu--Arg(NO2)--Cha--NH2] (Alloc-[Phe(4-amidino)]E[Arg(NO2)][Cha]-NH2)
The pKi of the first is 0.51 log units lower: 7.34 for the first, 7.85 for the second.

Compared with `C=CCOC(=O)N[C@@H](Cc1ccc(C(=N)N)cc1)C(=O)N[C@@H](CCC(=O)O)C(=O)N[C@@H](CNC(=N)N)C(=O)N[C@@H](Cc1ccc(C2(c3ccccc3)SCCS2)cc1)C(N)=O` [Alloc--pAph--Glu--Dap[--C(=NH)--NH2]--Phe[4-C(--S--(CH2)2 --S--)--Ph]--NH2], `C=CCOC(=O)N[C@@H](Cc1ccc(C(=N)N)cc1)C(=O)N[C@@H](CCC(=O)O)C(=O)N[C@@H](CC(N)=O)C(=O)NCc1ccc2c(c1)OCO2` [Alloc--pAph--Glu--Asn-3,4-methylenedioxybenzylamide] is 0.90 log units lower in pKi: 7.82 for the first, 6.92 for the second.

With `C=CCOC(=O)N[C@@H](Cc1ccc(C(=N)N)cc1)C(=O)N[C@@H](CCC(=O)O)C(=O)N[C@@H](CC(N)=O)C(=O)NCc1cc(C(F)(F)F)cc(C(F)(F)F)c1` [Alloc--pAph--Glu--Asn-3,5-bistrifluoromethylbenzylamide] the pKi was 7.48.
